This passage reports IC50 results from ChEMBL document CHEMBL1157445, “Design, synthesis and evaluation of isaindigotone derivatives as acetylcholinesterase and butyrylcholinesterase inhibitors” (Bioorg Med Chem Lett, 2008).

SMILES strings stand for the structures. A value given as a limit tells only on which side of the number the result lay.

Cholinesterase (Equus caballus, UniProt P81908), sequence (P81908 whole entry): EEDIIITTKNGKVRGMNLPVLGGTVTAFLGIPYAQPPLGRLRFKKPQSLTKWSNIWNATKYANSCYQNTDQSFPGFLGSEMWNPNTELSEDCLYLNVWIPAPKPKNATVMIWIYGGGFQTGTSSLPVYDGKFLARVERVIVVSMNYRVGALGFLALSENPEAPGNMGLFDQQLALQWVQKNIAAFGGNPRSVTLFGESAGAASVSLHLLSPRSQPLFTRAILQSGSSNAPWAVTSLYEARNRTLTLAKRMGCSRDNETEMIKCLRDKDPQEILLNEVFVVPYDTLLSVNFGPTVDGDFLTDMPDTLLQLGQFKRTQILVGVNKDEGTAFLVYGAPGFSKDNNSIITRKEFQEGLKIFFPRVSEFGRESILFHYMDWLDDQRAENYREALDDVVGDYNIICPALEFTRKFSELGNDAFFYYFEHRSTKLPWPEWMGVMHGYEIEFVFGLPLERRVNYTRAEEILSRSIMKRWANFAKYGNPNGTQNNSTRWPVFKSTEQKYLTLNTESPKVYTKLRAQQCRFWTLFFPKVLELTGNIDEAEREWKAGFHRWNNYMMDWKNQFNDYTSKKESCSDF

The target in the first experiment is Cholinesterase (Homo sapiens, UniProt P06276). Kind of experiment: Inhibition of BuchE.
Cholinesterase (Homo sapiens, UniProt P06276), sequence (P06276 whole entry): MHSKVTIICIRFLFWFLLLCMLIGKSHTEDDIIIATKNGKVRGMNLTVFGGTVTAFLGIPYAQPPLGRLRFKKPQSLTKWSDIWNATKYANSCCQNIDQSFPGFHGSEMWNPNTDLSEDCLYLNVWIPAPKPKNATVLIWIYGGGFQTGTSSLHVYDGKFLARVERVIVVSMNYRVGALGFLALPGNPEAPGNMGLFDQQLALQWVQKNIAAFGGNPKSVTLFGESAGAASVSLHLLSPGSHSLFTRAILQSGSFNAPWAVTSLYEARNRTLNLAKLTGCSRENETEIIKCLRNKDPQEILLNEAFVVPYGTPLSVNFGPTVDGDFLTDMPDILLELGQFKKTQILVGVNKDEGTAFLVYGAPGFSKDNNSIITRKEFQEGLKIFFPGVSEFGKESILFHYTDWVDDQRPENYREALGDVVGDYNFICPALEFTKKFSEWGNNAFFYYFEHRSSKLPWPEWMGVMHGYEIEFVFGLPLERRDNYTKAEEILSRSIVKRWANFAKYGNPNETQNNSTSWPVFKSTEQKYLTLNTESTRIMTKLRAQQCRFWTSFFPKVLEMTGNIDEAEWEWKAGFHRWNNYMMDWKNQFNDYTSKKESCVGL
As for `O=c1c2ccccc2nc2n1CCC2` [DEOXYVASICINONE], inhibition was half-maximal at 25.1 µM (IC50). That is a double-digit micromolar value.

In a further experiment the target is Acetylcholinesterase (Homo sapiens, UniProt P22303). Kind of experiment: Inhibition of AchE.
Acetylcholinesterase (Homo sapiens, UniProt P22303), sequence (P22303 whole entry): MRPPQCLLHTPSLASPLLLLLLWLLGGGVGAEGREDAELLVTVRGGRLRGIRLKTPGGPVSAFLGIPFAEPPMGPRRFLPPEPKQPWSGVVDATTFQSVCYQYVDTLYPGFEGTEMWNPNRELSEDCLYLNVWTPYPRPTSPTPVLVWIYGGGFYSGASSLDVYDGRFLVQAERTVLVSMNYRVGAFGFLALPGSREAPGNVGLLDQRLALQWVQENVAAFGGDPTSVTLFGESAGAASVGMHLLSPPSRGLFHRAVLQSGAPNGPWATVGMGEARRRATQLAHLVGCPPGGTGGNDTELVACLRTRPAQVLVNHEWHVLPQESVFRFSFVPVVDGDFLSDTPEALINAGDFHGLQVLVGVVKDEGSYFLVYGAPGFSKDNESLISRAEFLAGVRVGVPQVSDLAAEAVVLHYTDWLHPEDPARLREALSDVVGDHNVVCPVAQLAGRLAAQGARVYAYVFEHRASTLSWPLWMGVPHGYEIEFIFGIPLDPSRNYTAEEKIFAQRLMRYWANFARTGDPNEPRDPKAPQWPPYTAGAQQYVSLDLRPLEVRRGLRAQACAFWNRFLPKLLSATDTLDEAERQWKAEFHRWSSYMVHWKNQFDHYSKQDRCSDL
`O=c1c2ccccc2nc2n1CCC2` [DEOXYVASICINONE] registered an IC50 of 82.5 µM.

A further experiment addresses Cholinesterase (Equus caballus, UniProt P81908).
Description: Inhibition of equine serum BuchE
In the case of `O=c1c2ccccc2nc2n1CC/C2=C\c1ccc(OCCN2CCCCC2)cc1`, the midpoint of inhibition, the IC50, lay at 2.99 µM.

Take `O=c1c2ccccc2nc2n1CC/C2=C\c1ccc(OCCCN2CCCCC2)cc1`: it took 1.66 µM to reach half-maximal inhibition (IC50).

For the molecule `CCN(CC)CCOc1ccc(/C=C2\CCn3c2nc2ccccc2c3=O)cc1`, the IC50 was determined as 12.7 µM.

As to `CCN(CC)CCCOc1ccc(/C=C2\CCn3c2nc2ccccc2c3=O)cc1`, the IC50 came out at 7.12 µM.

`O=c1c2ccccc2nc2n1CCC2Cc1ccc(OCCCN2CCCCC2)cc1` (stereo not drawn) had a 50% inhibitory concentration (IC50) of 5.72 µM.

For the molecule `CCN(CC)CCOc1ccc(CC2CCn3c2nc2ccccc2c3=O)cc1` (stereo not drawn), the IC50 was over 20 µM.

Regarding `CCN(CC)CCCOc1ccc(CC2CCn3c2nc2ccccc2c3=O)cc1` (stereo not drawn), the IC50 was over 20 µM.

`O=c1c2ccccc2nc2n1CCC2Cc1ccc(OCCN2CCCCC2)cc1` (stereo not drawn) showed an IC50 of 8.29 µM.

In a further experiment the target is Acetylcholinesterase (Electrophorus electricus, UniProt O42275).
Acetylcholinesterase (Electrophorus electricus, UniProt O42275), sequence (O42275 whole entry): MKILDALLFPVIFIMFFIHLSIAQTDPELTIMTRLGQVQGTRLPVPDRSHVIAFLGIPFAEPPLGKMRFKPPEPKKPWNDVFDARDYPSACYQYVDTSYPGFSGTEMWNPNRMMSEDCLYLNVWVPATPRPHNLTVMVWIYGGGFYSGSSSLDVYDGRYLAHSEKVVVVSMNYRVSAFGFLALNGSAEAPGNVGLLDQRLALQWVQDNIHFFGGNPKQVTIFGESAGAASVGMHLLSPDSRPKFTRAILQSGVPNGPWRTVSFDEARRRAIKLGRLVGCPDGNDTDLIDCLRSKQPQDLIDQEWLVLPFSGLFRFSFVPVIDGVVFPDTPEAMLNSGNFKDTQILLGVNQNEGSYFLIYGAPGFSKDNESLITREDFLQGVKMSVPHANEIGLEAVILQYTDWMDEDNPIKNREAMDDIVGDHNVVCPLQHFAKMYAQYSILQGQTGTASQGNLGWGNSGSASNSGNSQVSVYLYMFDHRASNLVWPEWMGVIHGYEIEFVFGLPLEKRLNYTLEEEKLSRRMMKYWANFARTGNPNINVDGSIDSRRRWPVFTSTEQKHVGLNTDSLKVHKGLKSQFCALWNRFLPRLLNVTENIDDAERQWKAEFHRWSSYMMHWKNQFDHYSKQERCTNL
Description: Inhibition of electric eel AchE
In turn, `O=c1c2ccccc2nc2n1CC/C2=C\c1ccc(OCCN2CCCCC2)cc1` yielded an IC50 of 0.16 µM.

Regarding `O=c1c2ccccc2nc2n1CC/C2=C\c1ccc(OCCCN2CCCCC2)cc1`, the IC50 came to 0.72 µM.

Take `CCN(CC)CCOc1ccc(/C=C2\CCn3c2nc2ccccc2c3=O)cc1`: the IC50 stood at 0.48 µM. This IC50 lies about 1.5-fold lower than the previous one.

`CCN(CC)CCCOc1ccc(/C=C2\CCn3c2nc2ccccc2c3=O)cc1` displayed a half-maximal inhibitory concentration (IC50) of 2.41 µM.

Regarding `O=c1c2ccccc2nc2n1CCC2Cc1ccc(OCCCN2CCCCC2)cc1` (stereo not drawn), the IC50 came to 5.58 µM.

`CCN(CC)CCOc1ccc(CC2CCn3c2nc2ccccc2c3=O)cc1` (stereo not drawn) had an IC50 of 1.62 µM. This IC50 is about 3.4-fold lower than that of the molecule before.

With `CCN(CC)CCCOc1ccc(CC2CCn3c2nc2ccccc2c3=O)cc1` (stereo not drawn), the midpoint of inhibition, the IC50, lay at 8.95 µM. This IC50 lies about 5.5-fold higher than the previous one.

`O=c1c2ccccc2nc2n1CCC2Cc1ccc(OCCN2CCCCC2)cc1` (stereo not drawn) registered an IC50 of 0.75 µM.
